Test results published in the NIST ThermoML archive (doi:10.1016/j.fluid.2010.07.011).

Experiment: xn = mol fraction of the nth substance listed
Conditions: 101.33 kPa, Liquid, Vibrating tube method

CCCCCCC [heptane] + CCCCCCN
x2 = 0
Conditions	mass density [kg/m3]
288.15 K	687.954
293.15 K	683.733
298.15 K	679.494
303.15 K	675.229
308.15 K	670.941
313.15 K	666.621
318.15 K	662.273
323.15 K	657.896

CCCCCCN [1-hexanamine] + CCCCCCC
mass density [kg/m3]
Conditions	288.15 K	293.15 K	298.15 K	303.15 K	308.15 K	313.15 K	318.15 K	323.15 K
x1 = 0.0497	691.084	686.872	682.638	678.375	674.087	669.766	665.416	661.034
x1 = 0.0712	692.472	688.259	684.023	679.762	675.473	671.155	666.804	662.428
x1 = 0.1	694.376	690.164	685.929	681.666	677.379	673.063	668.716	664.339
x1 = 0.1394	697.059	692.841	688.603	684.341	680.052	675.736	671.39	667.016
x1 = 0.2017	701.458	697.235	692.989	688.722	684.431	680.114	675.766	671.395
x1 = 0.3011	708.825	704.586	700.331	696.055	691.758	687.436	683.088	678.716
x1 = 0.4001	716.491	712.241	707.974	703.691	699.388	695.063	690.714	686.344
x1 = 0.5105	725.411	721.153	716.879	712.593	708.285	703.959	699.61	695.241
x1 = 0.5996	732.829	728.568	724.292	720.004	715.698	711.371	707.026	702.664
x1 = 0.6802	739.756	735.495	731.219	726.929	722.623	718.301	713.958	709.598
x1 = 0.7495	745.832	741.569	737.294	733.009	728.705	724.386	720.046	715.689
x1 = 0.7984	750.175	745.914	741.641	737.357	733.056	728.74	724.406	720.058
x1 = 0.8484	754.693	750.434	746.164	741.883	737.584	733.272	728.943	724.594
x1 = 0.8999	759.4	755.143	750.877	746.597	742.304	737.996	733.672	729.332
x1 = 0.9467	763.694	759.441	755.177	750.901	746.613	742.31	737.99	733.656
x1 = 1	768.637	764.385	760.128	755.856	751.573	747.276	742.962	738.636

CCCCO [butan-1-ol] + CCCCCCN
x1 = 1
Conditions	mass density [kg/m3]
288.15 K	813.373
293.15 K	809.573
298.15 K	805.762
303.15 K	801.923
308.15 K	798.053
313.15 K	794.147
318.15 K	790.231
323.15 K	786.238

CCCCCCN [1-hexanamine] + CCCCO
mass density [kg/m3]
Conditions	288.15 K	293.15 K	298.15 K	303.15 K	308.15 K	313.15 K	318.15 K	323.15 K
x2 = 0	768.637	764.385	760.128	755.856	751.573	747.276	742.962	738.636
x2 = 0.0503	771.284	767.06	762.826	758.576	754.314	750.035	745.737	741.427
x2 = 0.1108	774.579	770.381	766.172	761.947	757.705	753.444	749.165	744.868
x2 = 0.1615	777.172	772.994	768.799	764.593	760.366	756.118	751.85	747.565
x2 = 0.2004	779.327	775.161	770.98	766.783	762.567	758.331	754.072	749.795
x2 = 0.2455	781.707	777.556	773.386	769.201	764.996	760.77	756.52	752.247
x2 = 0.3004	784.53	780.391	776.235	772.062	767.867	763.651	759.41	755.147
x2 = 0.4	789.735	785.619	781.483	777.33	773.155	768.956	764.732	760.481
x2 = 0.4802	793.847	789.75	785.637	781.501	777.345	773.162	768.953	764.717
x2 = 0.6294	800.788	796.75	792.692	788.612	784.508	780.377	776.215	772.02
x2 = 0.6999	803.655	799.656	795.637	791.594	787.526	783.429	779.299	775.138
x2 = 0.75	805.487	801.517	797.53	793.517	789.481	785.41	781.306	777.172
x2 = 0.7997	807.332	803.397	799.441	795.46	791.45	787.411	783.336	779.228
x2 = 0.8495	808.927	805.024	801.1	797.154	793.178	789.169	785.123	781.043
x2 = 0.8994	810.567	806.697	802.808	798.893	794.95	790.973	786.956	782.9
x2 = 0.9504	812.092	808.261	804.406	800.528	796.618	792.674	788.687	784.663
